Experimental data taken from patent US20200024278A1, “COMPOSITION COMPRISING ANTIBIOTIC COMPOUND AND AN HETEROCYCLIC COMPOUND AND THEIR USE IN PREVENTING OR TREATING BACTERIAL INFECTIONS” (MUTABILIS, priority 2016, published 2020).
Like-named read-outs stand apart in the source and are kept apart here.

Key:
Experiment in all cases: MIC, broth microdilution (CLSI), substance alone or ATB combined with compound at 4 or 8 μg/mL
ECO 190317 = type: cell-based, E. coli; settings: ECO 190317; for MIC: Escherichia coli
Outline: (§1)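 Antibiotic MICs were determined in presence of fixed compound at 4 or 8 μg/mL, and compound MICs alone, by visual growth inhibition. Inoculum 5·10^5 CFU/mL in ca-MHB, incubated 35 °C for 16-20 h per CLSI-M7-A7. Glucose-6-phosphate (25 μg/ml) added when fosfomycin was tested.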

ECO UFR39 = type: cell-based, E. coli; settings: ECO UFR39; for MIC: Escherichia coli
Outline: as §1

KPN 6299 = type: cell-based, K. pneumoniae; settings: for MIC: Klebsiella pneumoniae
Outline: as §1

KPN BAA-1898 = type: cell-based, K. pneumoniae; settings: KPN BAA-1898; for MIC: Klebsiella pneumoniae, BAA1898
Outline: as §1

KPN UFR42 = type: cell-based, K. pneumoniae; settings: KPN UFR42
Outline: as §1

ECL P99 = type: cell-based, E. cloacae; settings: ECL P99; with Example 1 @8 μg/ml
Outline: as §1

[1] = antibiotic alone, read-out: MIC ATB alone

## CC1(C)S[C@@H]2[C@H](NC(=O)[C@H](N)c3ccc(O)cc3)C(=O)N2[C@H]1C(=O)O [AMX, Amoxicillin, reference compound]
ECO 190317; with Example 1 @8 μg/ml
  MIC ATB combined with Example 1 @8 μg/ml: <0.031 µg/mL
ECO 190317; with Example 1 at 8 μg/ml
  MIC ATB combined with Example 1 @8 μg/ml: <0.031 µg/mL
ECO 190317; with Example 7 at 8 μg/ml
  MIC ATB combined with Example 7 @8 μgml: <0.031 µg/mL
ECO 190317; with Example 9 @4 μg/ml
  MIC ATB combined with Example 9 @4 μg/ml: <0.031 µg/mL
ECO 190317; with Example 9 at 4 μg/ml
  MIC ATB combined with Example 9 @4 μg/ml: <0.031 µg/mL
ECO 190317; with Example 11 at 8 μg/ml
  MIC ATB combined with Example 11 @8 μg/ml: <0.031 µg/mL
ECO 190317; with Example 12 at 8 μg/ml
  MIC ATB combined with Example 12 @8 μg/ml: <0.031 µg/mL
ECO 190317; with Example 13 at 8 μg/ml
  MIC ATB combined with Example 13 @8 μg/ml: <0.031 µg/mL
ECO 190317; with Example 14 at 8 μg/ml
  MIC ATB combined with Example 14 @8 μg/ml: <0.031 µg/mL
ECO 190317; with Example 15 at 4 μg/ml
  MIC ATB combined with Example 15 @4 μgml: <0.031 µg/mL
ECO 190317; with Example 16 at 4 μg/ml
  MIC ATB combined with Example 16 @4 μg/ml: <0.031 µg/mL
ECO 190317; [1]
  MIC: > 1020 µg/mL
ECO 190317; substance alone, read-out: MIC
  MIC: > 1020 µg/mL
ECO UFR39; with Example 1 @8 μg/ml
  MIC ATB combined with Example 1 @8 μg/ml: <0.031 µg/mL
ECO UFR39; with Example 1 at 8 μg/ml
  MIC ATB combined with Example 1 @8 μg/ml: <0.031 µg/mL
ECO UFR39; with Example 7 at 8 μg/ml
  MIC ATB combined with Example 7 @8 μgml: <0.031 µg/mL
ECO UFR39; with Example 9 @4 μg/ml
  MIC ATB combined with Example 9 @4 μg/ml: <0.031 µg/mL
ECO UFR39; with Example 9 at 4 μg/ml
  MIC ATB combined with Example 9 @4 μg/ml: <0.031 µg/mL
ECO UFR39; with Example 11 at 8 μg/ml
  MIC ATB combined with Example 11 @8 μg/ml: <0.031 µg/mL
ECO UFR39; with Example 12 at 8 μg/ml
  MIC ATB combined with Example 12 @8 μg/ml: <0.031 µg/mL
ECO UFR39; with Example 13 at 8 μg/ml
  MIC ATB combined with Example 13 @8 μg/ml: <0.031 µg/mL
ECO UFR39; with Example 14 at 8 μg/ml
  MIC ATB combined with Example 14 @8 μg/ml: <0.031 µg/mL
ECO UFR39; with Example 15 at 4 μg/ml
  MIC ATB combined with Example 15 @4 μgml: <0.031 µg/mL
ECO UFR39; with Example 16 at 4 μg/ml
  MIC ATB combined with Example 16 @4 μg/ml: <0.031 µg/mL
ECO UFR39; [1]
  MIC: > 1020 µg/mL
ECO UFR39; substance alone, read-out: MIC
  MIC: > 1020 µg/mL
KPN 6299; [1]
  MIC: > 1020 µg/mL
KPN 6299; substance alone, read-out: MIC
  MIC: > 1020 µg/mL
KPN 6299; with Example 1 @8 μg/ml
  MIC ATB combined with Example 1 @8 μg/ml: >32 µg/mL
KPN 6299; with Example 1 at 8 μg/ml
  MIC ATB combined with Example 1 @8 μg/ml: >32 µg/mL
KPN 6299; with Example 7 at 8 μg/ml
  MIC ATB combined with Example 7 @8 μgml: 0.5 µg/mL
KPN 6299; with Example 9 @4 μg/ml
  MIC ATB combined with Example 9 @4 μg/ml: <=0.5 μg/mL
KPN 6299; with Example 9 at 4 μg/ml
  MIC ATB combined with Example 9 @4 μg/ml: <0.031 µg/mL
KPN 6299; with Example 11 at 8 μg/ml
  MIC ATB combined with Example 11 @8 μg/ml: <0.031 µg/mL
KPN 6299; with Example 12 at 8 μg/ml
  MIC ATB combined with Example 12 @8 μg/ml: <0.031 µg/mL
KPN 6299; with Example 13 at 8 μg/ml
  MIC ATB combined with Example 13 @8 μg/ml: 2 µg/mL
KPN 6299; with Example 14 at 8 μg/ml
  MIC ATB combined with Example 14 @8 μg/ml: <0.031 µg/mL
KPN 6299; with Example 15 at 4 μg/ml
  MIC ATB combined with Example 15 @4 μgml: <0.031 µg/mL
KPN 6299; with Example 16 at 4 μg/ml
  MIC ATB combined with Example 16 @4 μg/ml: <0.031 µg/mL
KPN BAA-1898; with Example 1 @8 μg/ml
  MIC ATB combined with Example 1 @8 μg/ml: >32 µg/mL
KPN BAA-1898; with Example 1 at 8 μg/ml
  MIC ATB combined with Example 1 @8 μg/ml: >32 µg/mL
KPN BAA-1898; with Example 7 at 8 μg/ml
  MIC ATB combined with Example 7 @8 μgml: >32 µg/mL
KPN BAA-1898; with Example 9 @4 μg/ml
  MIC ATB combined with Example 9 @4 μg/ml: <0.031 µg/mL
KPN BAA-1898; with Example 9 at 4 μg/ml
  MIC ATB combined with Example 9 @4 μg/ml: <0.031 µg/mL
KPN BAA-1898; with Example 11 at 8 μg/ml
  MIC ATB combined with Example 11 @8 μg/ml: <0.031 µg/mL
KPN BAA-1898; with Example 12 at 8 μg/ml
  MIC ATB combined with Example 12 @8 μg/ml: <0.031 µg/mL
KPN BAA-1898; with Example 13 at 8 μg/ml
  MIC ATB combined with Example 13 @8 μg/ml: >32 µg/mL
KPN BAA-1898; with Example 14 at 8 μg/ml
  MIC ATB combined with Example 14 @8 μg/ml: <0.031 µg/mL
KPN BAA-1898; with Example 15 at 4 μg/ml
  MIC ATB combined with Example 15 @4 μgml: <0.031 µg/mL
KPN BAA-1898; with Example 16 at 4 μg/ml
  MIC ATB combined with Example 16 @4 μg/ml: <0.031 µg/mL
KPN BAA-1898; [1]
  MIC: > 1020 µg/mL
KPN BAA-1898; substance alone, read-out: MIC
  MIC: > 1020 µg/mL
KPN UFR42; with Example 1 @8 μg/ml
  MIC ATB combined with Example 1 @8 μg/ml: >32 µg/mL
KPN UFR42; with Example 1 at 8 μg/ml
  MIC ATB combined with Example 1 @8 μg/ml: >32 µg/mL
KPN UFR42; with Example 7 at 8 μg/ml
  MIC ATB combined with Example 7 @8 μgml: >32 µg/mL
KPN UFR42; with Example 9 @4 μg/ml
  MIC ATB combined with Example 9 @4 μg/ml: >32 µg/mL
KPN UFR42; with Example 9 at 4 μg/ml
  MIC ATB combined with Example 9 @4 μg/ml: >32 µg/mL
KPN UFR42; with Example 11 at 8 μg/ml
  MIC ATB combined with Example 11 @8 μg/ml: <0.031 µg/mL
KPN UFR42; with Example 12 at 8 μg/ml
  MIC ATB combined with Example 12 @8 μg/ml: <0.031 µg/mL
KPN UFR42; with Example 13 at 8 μg/ml
  MIC ATB combined with Example 13 @8 μg/ml: >32 µg/mL
KPN UFR42; with Example 14 at 8 μg/ml
  MIC ATB combined with Example 14 @8 μg/ml: <0.031 µg/mL
KPN UFR42; with Example 15 at 4 μg/ml
  MIC ATB combined with Example 15 @4 μgml: <0.031 µg/mL
KPN UFR42; with Example 16 at 4 μg/ml
  MIC ATB combined with Example 16 @4 μg/ml: <0.031 µg/mL
KPN UFR42; Klebsiella pneumoniae, antibiotic alone, read-out: MIC ATB alone
  MIC: > 256 µg/mL
ECL P99
  MIC ATB combined with Example 1 @8 μg/ml: <0.031 µg/mL
